Experimental data: patent US20070265165A1, “NOVEL HERBICIDES” (Syngenta Crop Protection, Inc., priority 1998, published 2007)

Experiments:
Format in all cases: in vivo
[1] = tested on: Cyperus; test: Pre-emergent herbicidal action; settings: 2000 g AS/ha sprayed immediately after sowing; evaluated 3 weeks later; rating scale 1-9 (1=total damage, 9=no action)
Description: (§1) Monocot and dicot test plants are sown in standard soil in plastic pots. Immediately after sowing, the plants are sprayed at a concentration of 2 kg active substance/ha with an aqueous suspension of the test compound [prepared from a 25% wettable powder (Example F3, b) in accordance with WO 97/34485] or an emulsion of the test compound [prepared from a 25% emulsifiable concentrate (Example Fl c)] (500 l of water/ha). The test plants are then cultivated in the greenhouse under optimum conditions. The test is evaluated 3 weeks later on a rating scale of 1-9 (1=total damage, 9=no action). Ratings of 1 to 4 (especially of 1 to 3) denote good to very good herbicidal action.

[2] = tested on: Setaria; test: Pre-emergent herbicidal action; settings: 2000 g AS/ha sprayed immediately after sowing; evaluated 3 weeks later; rating scale 1-9 (1=total damage, 9=no action)
Description: as §1

[3] = tested on: Stellaria; test: Pre-emergent herbicidal action; settings: 2000 g AS/ha sprayed immediately after sowing; evaluated 3 weeks later; rating scale 1-9 (1=total damage, 9=no action)
Description: as §1

[4] = tested on: Solanig; test: Pre-emergent herbicidal action; settings: 2000 g AS/ha sprayed immediately after sowing; evaluated 3 weeks later; rating scale 1-9 (1=total damage, 9=no action)
Description: as §1

[5] = tested on: Sinapsis; test: Pre-emergent herbicidal action; settings: 2000 g AS/ha sprayed immediately after sowing; evaluated 3 weeks later; rating scale 1-9 (1=total damage, 9=no action)
Description: as §1

[6] = tested on: Cyperus; test: Post-emergent herbicidal action; settings: 2000 g AS/ha sprayed in the 4- to 6-leaf stage; evaluated about 18 days later; rating scale 1-9 (1=total damage, 9=no action)
Description: (§2) In a greenhouse, monocot and dicot test plants are sown in standard soil in plastic pots and sprayed in the 4- to 6-leaf stage with an aqueous suspension of the test compounds of formula I prepared from a 25% wettable powder [Example F3, b) of WO 97/34485] or with an emulsion of the test compound of formula I prepared from a 25% emulsifiable concentrate [Example F1 c) of WO 97/34485] at a concentration of 2 kg active substance/ha (500 l of water/ha). The test plants are then further cultivated in the greenhouse under optimum conditions. The test is evaluated about 18 days later on a rating scale of 1-9 (1=total damage, 9=no action). Ratings of 1 to 4 (especially of 1 to 3) denote good to very good herbicidal action.

[7] = tested on: Setaria; test: Post-emergent herbicidal action; settings: 2000 g AS/ha sprayed in the 4- to 6-leaf stage; evaluated about 18 days later; rating scale 1-9 (1=total damage, 9=no action)
Description: as §2

[8] = tested on: Stellaria; test: Post-emergent herbicidal action; settings: 2000 g AS/ha sprayed in the 4- to 6-leaf stage; evaluated about 18 days later; rating scale 1-9 (1=total damage, 9=no action)
Description: as §2

[9] = tested on: Solanig; test: Post-emergent herbicidal action; settings: 2000 g AS/ha sprayed in the 4- to 6-leaf stage; evaluated about 18 days later; rating scale 1-9 (1=total damage, 9=no action)
Description: as §2

[10] = tested on: Sinapsis; test: Post-emergent herbicidal action; settings: 2000 g AS/ha sprayed in the 4- to 6-leaf stage; evaluated about 18 days later; rating scale 1-9 (1=total damage, 9=no action)
Description: as §2

| SMILES | Pre-emergent action, test plant Cyperus, rating [1] | Pre-emergent action, test plant Setaria, rating [2] | Pre-emergent action, test plant Stellaria, rating [3] | Pre-emergent action, test plant Solanig, rating [4] | Pre-emergent action, test plant Sinapsis, rating [5] | Post-emergent action, test plant Cyperus, rating [6] | Post-emergent action, test plant Setaria, rating [7] | Post-emergent action, test plant Stellaria, rating [8] | Post-emergent action, test plant Solanig, rating [9] | Post-emergent action, test plant Sinapsis, rating [10] |
| --- | --- | --- | --- | --- | --- | --- | --- | --- | --- | --- |
| COCc1c(S(C)(=O)=O)ccc(C(=O)C2=C(O)C3CCC(C3)C2=O)c1C (centres unmarked) [1,001, 4-hydroxy-3-(4-methylsulphonyl-3-methoxymethyl-2-methyl-benzoyl)-bicyclo[3.2.1]oct-3-en-2-one] | 3 | 3 | 2 | 2 | 3 | 3 | 2 | 2 | 2 | 2 |
| COCc1c(S(C)(=O)=O)ccc(C(=O)C2=C(O)C(C)(C)ON(C)C2=O)c1C [2,001, 5-hydroxy-4-(4-methylsulphonyl-3-methoxymethyl-2-methyl-benzoyl)-2,6,6-trimethyl-6.H.-[1,2]oxazin-3-one] | 3 | 3 | 2 | 2 | 2 | 3 | 3 | 4 | 2 | 2 |
